This note sets out measurements from patent publication US20030186943A1, “Substituted gamma-phenyl-delta-lactams and uses related thereto” (Inflazyme Pharmaceuticals Ltd., priority 1998, published 2003).

Molecules are shown by their SMILES. Like-named read-outs stand apart in the source and are kept apart here.

Experiment [1] has as its target T1, cAMP phosphodiesterase 3 from human platelets (Homo sapiens, UniProt Q14432).
T1 construct: from tissue; host or cells: human platelets, cytoplasmic extract
Kind of experiment: Inhibition of cAMP phosphodiesterase 3 from human platelets. The class given is biochemical. To be noted: for inhibition at 100 µM: PDE3. In outline: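 Partially purified human platelet extract used as PDE3 source with cAMP as substrate, so cGMP-preferring PDE2 and PDE5 present in platelets go undetected. IBMX served as positive control.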

In experiment [2] the test system is IL-2 production in concanavalin A stimulated primary human CD4+ T-cells. As to the kind of experiment: IL-2 production (Th1 profile) in concanavalin A stimulated primary human CD4+ T-cells. The class given is cell-based. The following applies: for IC50: Homo sapiens, T-cell, 10 μg/mL Concanavalin A, 48 hours, X marks this range; for Th1 versus Th2 cytokine profile: conA stimulated CD4+ selected cells. From the text:
(§1) The assay on the primary human T-cells involves their activation by concanavalin A (conA); (Sigma, Catalogue No. C 5275), followed by ELISA detection for cytokines for either profile. In the case of Th1-profiles, IL-2 and INF-γ are used as benchmarks while IL-10 is the indicator for a Th2-profile. Biologically, these indicators are useful in that IL-2 is the major T-cell mitogen while IL-10 represents a powerful yet selective immunosuppressive agent.
(§2) Approximately 60 cc of whole human blood was collected into ACD anti-coagulant vacutainer tubes. 15 mL Ficoll Paque 1077 was aliquoted into 6 sterile 50 mL conical tubes. 10 mL of blood was slowly layered on top of the Ficoll Paque by holding the tube upright and resting the pipette tip at the inside edge of the tube and allowing the blood to slowly run down the side of the tube. Tubes were spun at 1700 rpm for 30 minutes at room temperature. The plasma layer above the leukocyte band was aspirated off and a pasteur pipette was used to lift off the leukocyte band and transfer it to a sterile 50 mL conical tube. Cells from each leukocyte gradiant tube were transferred to a separate 50 mL conical tube. Sterile PBS pH 7.4 was added to each 50 mL conical tube containing cells from leukocyte band to a volume of 50 mL. Tubes were spun at 1100 rpm for 10 minutes. Supernatant was aspirated off and the cells were resuspended in 50 mL PBS pH 7.4. Tubes were re-centrifuged at 1100 rpm for 10 minutes. Supernatant was aspirated off and the cells were resuspended in appropriate medium at a density of 5×10^7 cells/mL or 2×10^6 cells/mL.
(§3) CD 4+T-cell Preparation: Cells from Leukocyte preparation were resuspended in sterile PBS pH 7.4 supplemented with 2-6% Fetal Bovine Serum (FBS) at a density of 5×10^7 cells/mL. Cells were then ready for isolation.
(§4) 100 μL of antibody cocktail (Stem Cell Technologies, Catalogue No. 14062) was added for each mL of cells and mixed well. Cells+Ab cocktail was incubated on ice for 30 minutes. After 30 minute incubation, 60 μL of magnetic colloid was added for each mL of cells, and mixed well. Cells+Ab cocktail+magnetic colloid were incubated on ice for 30 minutes. After a final 30 minute incubation cells were ready for magnetic cell separation.
(§5) Sample was loaded into the top of a column. The stopcock was turned to allow the flow of media down through the column, and the media was collected into a collection tube. PBS supplemented with 2-6% FBS was added to the column until three column volumes had been collected (not including the volume of the start sample). Cells were washed, counted, and resuspended in RPMI 1640 with 10% FBS+2 mM L-glutamine at a density of 1×10^6 cells/mL.
(§6) CD4+ T-cells were isolated as described above. Cells were suspended in RPMI 1640 media (Stem Cell Technologies Inc.; Catalogue No. 36750) with 10% FBS+2 mM L-glutamine at a density of 1×10^6 cells/mL. Cells were maintained on ice as test compounds were prepared. Test compounds were prepared in a sterile 96-well assay plate at 50×the final desired test concentration, all wells contained an equal amount of dimethylsulfoxide vehicle. 500 μL of CD4^+ T-cells were added to each well of 24-well assay plate. 10 μL of each test compound working solution was added to the appropriate wells; two wells were left as stimulated and non-stimulated controls. 10 μL of concanavalin A (50×the final concentration) at 10 μg/mL was added to each well with the exception of the non-stimulated control wells. Cells were incubated at 37° C. for 48 hours. Conditioned media is then assessed by ELISA for the quantity of IL-2, […], TNFα and IL-10 present.
(§7) Tables 5A, 5B and 5C represent a synopsis of data across individuals with respects to the potency of compounds of the invention in their ability to inhibit cytokines that are likely to promote or depress a Th1 or Th2 response. […]

The subject of experiment [3] is IFN-gamma production in concanavalin A stimulated primary human CD4+ T-cells. Kind of experiment: IFN-gamma production (Th1 profile) in concanavalin A stimulated primary human CD4+ T-cells. The experiment is classed as cell-based. To be noted: T-cell, 10 μg/mL Concanavalin A, 48 hours, X marks this range, read-out: INF-GAMMA IC50 RANGE (μM) 0.2-2.0.
Excerpt: as §1, §2, §3, §4, §5, §6, §7

Experiment [4] has as its system TNF-α production in concanavalin-A stimulated primary human CD4+ T-lymphocytes. Kind of experiment: TNF-α production in Con-A stimulated human CD4+ T-cells (ELISA). To be noted: T-lymphocyte, X marks this range. The experiment is classed as cell-based. The procedure:
Activated T-lymphocytes are known to produce TNF-α and may constitute a significant source of this important inflammatory mediator in localized regions of inflammation such as the rheumatoid synovium or psoriatic lesions. Supernatants from cona-stimulated primary human CD4+ T-cells that had been incubated in the presence or absence of a test compound were analyzed for TNF-α using an ELISA system. (Pharingen; recommended anti-TNF antibody set 18631-D and 18642-D). Substantial quantities of TNF-α were induced in vehicle treated T-cells stimulated with conA. […] This may be due to the differing sensitivity of monocyte/macrophages versus T-lymphocytes to elevations in intracellular cAMP with respect to regulatory pathways impacting TNF-α production.
as §2, §3, §4, §5, §6

The mark [5] stands for this setting: read-out: IL-2 IC50 RANGE (μM) 0.02-0.2.
Where [6] appears, read: PDE3, platelet cell extract, X marks this range, read-out: IC50 range (μM) 10-100.
The mark [7] stands for this setting: read-out: TNF-alpha IC50 RANGE (μM) 2.0-20.
Where [8] appears, read: read-out: IL-2 IC50 RANGE (μM) 0.2-2.0.
The mark [9] stands for this setting: PDE3, platelet cell extract, X marks this range, read-out: IC50 range (μM) 1-10.
The mark [10] stands for this setting: read-out: TNF-alpha IC50 RANGE (μM) <2.

T1 sequence (Q14432 whole entry): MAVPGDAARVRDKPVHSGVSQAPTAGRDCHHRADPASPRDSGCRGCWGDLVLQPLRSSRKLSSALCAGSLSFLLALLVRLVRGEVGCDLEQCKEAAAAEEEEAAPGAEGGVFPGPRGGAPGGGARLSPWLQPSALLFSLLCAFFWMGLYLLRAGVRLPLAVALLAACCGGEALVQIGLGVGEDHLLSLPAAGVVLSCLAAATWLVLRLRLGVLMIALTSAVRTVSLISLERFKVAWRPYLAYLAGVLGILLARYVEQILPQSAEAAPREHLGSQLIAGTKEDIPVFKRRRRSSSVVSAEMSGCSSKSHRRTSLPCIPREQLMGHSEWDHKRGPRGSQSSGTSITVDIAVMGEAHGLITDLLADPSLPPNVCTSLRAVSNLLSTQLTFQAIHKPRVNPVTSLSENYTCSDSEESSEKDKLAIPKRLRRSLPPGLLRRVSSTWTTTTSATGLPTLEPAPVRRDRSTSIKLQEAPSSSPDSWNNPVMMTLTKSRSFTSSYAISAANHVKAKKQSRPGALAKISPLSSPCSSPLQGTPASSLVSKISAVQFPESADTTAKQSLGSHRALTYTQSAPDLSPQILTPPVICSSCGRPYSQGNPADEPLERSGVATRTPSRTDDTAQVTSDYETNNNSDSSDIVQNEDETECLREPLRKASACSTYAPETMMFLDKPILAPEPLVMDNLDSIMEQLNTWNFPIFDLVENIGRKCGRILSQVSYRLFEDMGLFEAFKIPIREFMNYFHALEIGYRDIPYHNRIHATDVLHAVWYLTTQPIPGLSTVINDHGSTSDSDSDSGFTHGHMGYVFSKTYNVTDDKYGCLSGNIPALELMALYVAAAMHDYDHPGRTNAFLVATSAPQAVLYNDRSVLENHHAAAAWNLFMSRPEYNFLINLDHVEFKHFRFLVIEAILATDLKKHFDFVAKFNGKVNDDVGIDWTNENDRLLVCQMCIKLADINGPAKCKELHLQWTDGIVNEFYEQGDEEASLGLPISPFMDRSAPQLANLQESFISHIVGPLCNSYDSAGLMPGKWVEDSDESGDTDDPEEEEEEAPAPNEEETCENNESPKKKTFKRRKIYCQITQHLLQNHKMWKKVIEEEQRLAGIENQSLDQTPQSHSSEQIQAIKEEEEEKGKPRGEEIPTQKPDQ

In the case of `COc1cc(C[C@@H]2CC(c3ccc(OC)c(OC)c3)COC2=O)ccc1O` (mixture of isomers) [Compound 12], in experiment [1] (human platelets, read-out: IC50 PDE 3), the IC50 turned out to be 45 µM. For the same compound, in experiment [1] (read-out: % inhibition by 100 μM test compound 50-75, X marks this range), the inhibition at 100 µM lay within 50 to 75%.
Turning to `COc1cc(C[C@@H]2C[C@@H](c3ccc(OC)c(OC)c3)COC2=O)ccc1O` [Compound 30], the IC50 lay within 0.02 to 0.2 µM in experiment [2] (setting [5]), 10 to 100 µM in experiment [1] (setting [6]), 0.2 to 2 µM in experiment [3] and 2 to 20 µM in experiment [4] (setting [7]). In addition, in experiment [2], the “Th1 versus Th2 cytokine profile” value is listed as “selective inhibition of a Th1 profile”.
`COc1ccc([C@@H]2CCC(=O)OC2)cc1OC1CCCC1` [Compound 41] yielded an IC50 in experiment [1] (PDE3, platelet cell extract, X marks this range) above 100 µM. In addition, the inhibition at 100 µM in experiment [1] (read-out: % inhibition by 100 μM test compound 25-50, X marks this range) was 25 to 50%.
As for `COc1cc(CC2C[C@@H](c3ccc(OC)c(OC4CCCC4)c3)COC2=O)ccc1O` (stereo partly shown) [Compound 43], the IC50 in experiment [2] (setting [8]) lay within 0.2 to 2 µM; in experiment [1] (setting [6]), 10 to 100 µM; in experiment [3] it was 0.2 to 2 µM; in experiment [4] (setting [7]), 2 to 20 µM. In experiment [1] (read-out: % inhibition by 100 μM test compound 75-100, X marks this range), the inhibition at 100 µM lay within 75 to 100%.
`COc1ccc([C@H]2CNC(=O)C(Cc3ccc(OCc4ccccc4)c(OC)c3)C2)cc1OC` (stereo partly shown) [Compound 54]: the half-inhibitory concentration (IC50) was 0.02 to 0.2 µM in experiment [2] (setting [5]), 1 to 10 µM in experiment [1] (setting [9]), 0.2 to 2 µM in experiment [3] and below 2 µM in experiment [4] (setting [10]). For the same compound, the “Th1 versus Th2 cytokine profile” value in experiment [2] was “selective inhibition of a Th1 profile”.
For the compound `COc1cc(CC2C[C@@H](c3ccc(OC)c(OC)c3)CNC2=O)ccc1O` (stereo partly shown) [Compound 55], the IC50 was in the range of 0.2 to 2 µM in experiment [2] (setting [8]), 1 to 10 µM in experiment [1] (setting [9]), 0.2 to 2 µM in experiment [3] and 2 to 20 µM in experiment [4] (setting [7]).
`COc1cc(CC2C[C@@H](c3ccc(OC)c(OC4CCCC4)c3)CNC2=O)ccc1O` (stereo partly shown) [Compound 62]: the IC50 was 0.2 to 2 µM in experiment [2] (setting [8]), 1 to 10 µM in experiment [1] (setting [9]), 0.2 to 2 µM in experiment [3] and below 2 µM in experiment [4] (setting [10]).
Consider `COc1ccc(C2CNC(=O)C2)cc1OC1CCCC1` (stereo not shown) [Rolipram, reference compound], for which the IC50 in experiment [2] (read-out: IL-2 IC50 RANGE (μM) 2.0-20) was 2 to 20 µM; in experiment [3], 0.2 to 2 µM; in experiment [4] (setting [10]) it was below 2 µM. For the same compound, the “effect in PDE3 assay” value in experiment [1] (platelet cell extract, cAMP as substrate) is recorded as “without effect”.

As a reminder, the IC50 is the concentration at which inhibition is half-maximal. The inhibition is how much of the control response was suppressed.
